Source: patent US20090170880A1, “Methods and Means for the Treatment of Cancer” (priority 2007, published 2009)

Experiments:
[1] = target: T1, murine Bcrp1 (Mus musculus, UniProt Q7TMS5); experiment: Transwell transport of temozolomide, MDCKII-Bcrp1 cells, without or with inhibitors; assay type: in vitro ADME; details: MDCKII-Bcrp1 cells
T1 construct: expressed in transfected cells; host or cells: MDCKII (canine kidney) cells transduced with murine Bcrp1
T1 sequence (Q7TMS5 1-657): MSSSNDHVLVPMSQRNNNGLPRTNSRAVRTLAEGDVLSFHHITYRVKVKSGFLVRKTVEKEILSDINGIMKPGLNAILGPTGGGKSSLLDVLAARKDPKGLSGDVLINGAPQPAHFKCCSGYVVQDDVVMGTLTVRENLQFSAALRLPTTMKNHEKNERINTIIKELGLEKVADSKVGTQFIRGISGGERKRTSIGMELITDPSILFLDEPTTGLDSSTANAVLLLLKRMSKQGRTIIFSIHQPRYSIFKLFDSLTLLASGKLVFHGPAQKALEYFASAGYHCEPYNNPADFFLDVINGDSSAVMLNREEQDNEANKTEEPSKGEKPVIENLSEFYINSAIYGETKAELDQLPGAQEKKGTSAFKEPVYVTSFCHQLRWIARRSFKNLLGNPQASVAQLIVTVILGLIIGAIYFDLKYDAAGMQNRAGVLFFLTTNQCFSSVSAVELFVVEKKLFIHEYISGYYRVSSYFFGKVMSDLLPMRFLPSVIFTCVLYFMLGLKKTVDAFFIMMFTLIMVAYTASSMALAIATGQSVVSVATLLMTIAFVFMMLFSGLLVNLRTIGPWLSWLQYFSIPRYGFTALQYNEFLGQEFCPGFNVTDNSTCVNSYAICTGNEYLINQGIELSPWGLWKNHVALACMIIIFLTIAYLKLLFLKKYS
Experimental: The parental LLC pig-kidney (PK1) cell line and sublines transduced with murine Mdr1a or human MDR1 (12) and the parental Madine Darby Canine Kidney (MDCK) and murine Bcrp1 or human BCRP transduced sublines (13) were seeded on Transwell microporous polycarbonate membrane filters (3.0 μm pore size, 24 mm diameter; Costar Corning, N.Y., USA) at a density of 1×10^6 cells per well in 2 ml of MEM medium (Invitrogen Corporation, Carlsbad, Calif.) containing 10% v/v fetal calf serum. Cells were incubated at 37° C. in 5% CO2 for three days with one medium replacement after the first day. Two hours before the start of the experiment the medium in both compartments was replaced with 2 ml of OptiMEM medium (InVitrogen Corp.). At the start of the experiment the medium in the apical or basolateral compartment was replaced with 2 ml of freshly prepared OptiMEM medium containing 40 μg/ml of temozolomide. […] Zosuquidar (LY335979, 5 μM) was always added to the medium when doing experiments with MDCK cell lines to inhibit endogenous canine P-gp. Samples of 50 μl were collected every 30 min, for up to 2 h after start of the experiment. Because temozolomide is instable in medium at 37° C., we replaced one ml of the donor compartment by a freshly prepared aliquot every 30 min. [^3H]-inulin (approximately 7 kBq per well) was added to the same compartment as temozolomide to check the integrity of the cell layer. Wells showing a leakage of more than 1.5% per hour were excluded.
First, we took samples every 30 min for up to 2 h instead of every hour for up to 4 h. Secondly, to maintain adequate temozolomide levels at the donor side throughout the experiment we replaced 1 ml of the 2 ml of medium at the donor side of the transwell at each sampling time by 1 ml of a freshly prepared temozolomide solution in medium.

[2] = tested on: intracranial Mel57-luc tumor xenografts; experiment: Efficacy against intracranial Mel57-luc tumor xenografts; assay type: in vivo, nude mice; details: wild-type nude mice, elacridar oral 100 mg/kg/day×5 20-30 min before temozolomide oral 100 mg/kg/day×5
Experimental: Intracranial Mel57-luc (luciferase transfected subline) tumor xenografts in wild-type nude mice (WT) and mdr1ab knockout nude mice (MDR) were established according to the protocol below (see Kemper et al, Eur J Cancer 42:3294-3303, 2006).
The Mel57 cell line (University Medical Centre, Nijmegen, The Netherlands) is a human melanoma cell line and was cultured in MEM (Life Technologies Inc., Breda, The Netherlands) supplemented with 10% foetal calf serum, non-essential amino acids, streptomycin, penicillin and sodium pyruvate (all Life Technologies), and incubated at 37° C. and 5% CO2 in humidified air. The cell line was further transfected by standard protocols with lipofectamine using a pBS vector containing a β-actin driven luciferase gene coupled via an internal ribosome […] to GFP. After expansion, GFP bright cells were sorted to single cells by FACS, expanded and sublines tested for luciferase expression by an in vitro bioluminescence assay (Promega, Benelux BV, Leiden, The Netherlands). Three to five sublines showing the highest luminescence activity were tested in vivo for tumour take and intracranial growth behaviour. To retrieve tumour cells for injection, the cell culture was trypsinised (trypsin 0.05%; EDTA 0.02%, Life Technologies), washed two times with Hanks Balanced Saline Solution (HBSS, Life Technologies Inc.), counted and resuspended in an appropriate volume of HBSS. The single cell suspension was kept on ice until injection. […]
Mel57-luc cells (100,000 cells/2 μl) were injected stereotactically in the brain as described in detail in Kemper et al^14. […] The amount of bioluminescence in each animal was calculated relative to the first measurement when therapy was initiated (arbitrarily set at 100%) and was log converted prior to data analysis. Tumor volume was measured by bioluminescence activity (see Kemper et al, Eur J Cancer 42:3294-3303, 2006).

[3] = tested on: P-gp; experiment: Transwell control experiments with radioactively labeled P-gp and BCRP substrates; assay type: in vitro ADME; details: inhibitor 20 μM, radiolabeled substrates, results not shown
Experimental: Similar experiments were conducted in the parental canine MDCK cells and its transduced murine Bcrp1 or human BCRP sublines. […] Together with these experiments we ran control experiments using well-established P-gp and BCRP substrates that were available to us as radioactively labeled compounds (^14C-trabectedin and ^14C-Indisulan, or ^14C-topotecan). […] Moreover, the integrity of all monolayers was checked using ^3H-inuline as marker compound. Wells showing more than 1.5% translocation of inuline per 30 min were considered to be leaky and excluded from the analysis.

[4] = tested on: P-gp and BCRP; experiment: Temozolomide brain and plasma levels at 2 h with or without oral inhibitor; assay type: in vivo; details: wild-type mice, inhibitor 100 mg/kg oral, 2 h after temozolomide
Experimental: The mice were anesthetized with metoxyflurane and blood samples were obtained by cardiac puncture and collected on ice in tubes containing potassium EDTA as anticoagulant. […] Immediately after cardiac puncture the mice were killed by cervical dislocation and the brains were dissected and placed on ice. Within 60 min they were weighed and homogenized in 3 ml of ice-cold 1% of BSA in 0.05 M phosphate buffer adjusted to pH 2 and stored at −20° C. until further analysis. […] The brain-to-plasma ratio was calculated for each individual animal. The two-sided unpaired Student's t-test was used for statistical analysis of AUC values. Bonferroni's test for multiple comparisons was calculated using SPSS (v12.0.1; […]

[5] = in vivo; cited from earlier work
[6] = target: T2, P-gp (Mus musculus, UniProt P21447); details: Mdr1ab knockout mice; cited from earlier work
T2 construct: host or cells: mice (Mdr1ab knockout versus wild type)
T2 sequence (P21447 whole entry): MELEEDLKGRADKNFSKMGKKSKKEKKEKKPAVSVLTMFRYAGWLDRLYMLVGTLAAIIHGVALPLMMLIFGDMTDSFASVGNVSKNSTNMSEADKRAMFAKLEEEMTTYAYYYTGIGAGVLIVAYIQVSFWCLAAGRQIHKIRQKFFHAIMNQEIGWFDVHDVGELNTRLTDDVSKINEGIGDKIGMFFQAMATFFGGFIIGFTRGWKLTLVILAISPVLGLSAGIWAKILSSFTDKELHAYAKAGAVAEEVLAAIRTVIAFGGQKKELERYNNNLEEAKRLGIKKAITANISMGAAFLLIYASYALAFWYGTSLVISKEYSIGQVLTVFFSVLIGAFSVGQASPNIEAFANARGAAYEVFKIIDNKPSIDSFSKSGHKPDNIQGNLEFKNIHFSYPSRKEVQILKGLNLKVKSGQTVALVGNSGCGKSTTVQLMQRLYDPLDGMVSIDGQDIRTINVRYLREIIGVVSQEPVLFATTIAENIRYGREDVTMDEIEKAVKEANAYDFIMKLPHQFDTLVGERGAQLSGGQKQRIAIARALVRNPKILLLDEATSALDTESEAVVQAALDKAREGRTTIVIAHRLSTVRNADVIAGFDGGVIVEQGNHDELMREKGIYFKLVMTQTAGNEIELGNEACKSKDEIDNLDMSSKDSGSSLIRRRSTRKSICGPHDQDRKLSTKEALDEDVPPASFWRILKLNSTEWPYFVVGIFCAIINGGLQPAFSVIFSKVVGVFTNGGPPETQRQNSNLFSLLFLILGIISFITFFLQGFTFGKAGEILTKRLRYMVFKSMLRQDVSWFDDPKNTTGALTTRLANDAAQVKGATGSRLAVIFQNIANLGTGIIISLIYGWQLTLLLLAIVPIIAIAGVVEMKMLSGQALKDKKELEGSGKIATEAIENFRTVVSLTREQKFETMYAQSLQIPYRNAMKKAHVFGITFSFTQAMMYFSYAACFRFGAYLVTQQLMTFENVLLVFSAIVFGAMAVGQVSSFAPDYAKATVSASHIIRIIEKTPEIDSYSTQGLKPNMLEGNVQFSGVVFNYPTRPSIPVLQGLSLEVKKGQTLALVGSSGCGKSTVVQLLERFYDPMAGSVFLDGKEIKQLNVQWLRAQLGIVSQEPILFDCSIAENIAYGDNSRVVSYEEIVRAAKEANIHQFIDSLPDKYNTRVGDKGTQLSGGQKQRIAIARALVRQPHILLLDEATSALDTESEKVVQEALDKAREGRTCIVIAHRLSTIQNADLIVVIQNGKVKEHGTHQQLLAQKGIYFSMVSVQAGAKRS

For COc1cc2c(cc1OC)CN(CCc1ccc(NC(=O)c3cccc4c(=O)c5cccc(OC)c5[nH]c34)cc1)CC2 [elacridar], the “effect on Bcrp1 mediated transport of temozolomide” value (“effect on Bcrp1 mediated transport” for short) ([1]; inhibitor 5 μM) was “(almost) completely abrogated” and the “efficacy of temozolomide with elacridar versus temozolomide alone” value [2] was “more effective than temozolomide alone”.
With C#Cc1cccc(Nc2ncnc3cc(OCCOC)c(OCCOC)cc23)c1 [erlotinib] the “effect on Bcrp1 mediated transport” value ([1]; inhibitor 10 μM) was “(almost) completely abrogated”.
With COc1cc2ncnc(Nc3ccc(F)c(Cl)c3)c2cc1OCCCN1CCOCC1 [gefitinib] the “effect on Bcrp1 mediated transport” value ([1]; inhibitor 10 μM) was “(almost) completely abrogated”, the “inhibition of P-gp mediated transport” value [3] was “sufficient” and the “effect on temozolomide plasma level” value [4] was “significantly increased”.
For Cc1ccc(NC(=O)c2ccc(CN3CCN(C)CC3)cc2)cc1Nc1nccc(-c2cccnc2)n1 [imatinib], the oral bioavailability [5] is given as over 90%.
With CO[C@@H]1[C@@H](OC(N)=O)[C@@H](O)[C@H](Oc2ccc3c(O)c(NC(=O)c4ccc(O)c(CC=C(C)C)c4)c(=O)oc3c2C)OC1(C)C [novobiocin] the “effect on Bcrp1 mediated transport” value ([1]; inhibitor 50 μM) was “not sufficient”.
For CC(=O)O[C@H]1C(=O)[C@@]2(C)[C@H]([C@H](OC(=O)c3ccccc3)[C@]3(O)C[C@H](OC(=O)[C@H](O)[C@@H](NC(=O)c4ccccc4)c4ccccc4)C(C)=C1C3(C)C)[C@]1(OC(C)=O)CO[C@@H]1C[C@@H]2O [paclitaxel], the “brain-to-plasma ratio relative to wild-type controls” value [6] is listed as “more than 5 fold”.
